The target of data set [1] is T1, α-subunit of NaV1.2 neuronal sodium channels (Rattus norvegicus, UniProt P04775). Description: cell-based. As to conditions: for sensitivity at -70 mV holding potential compared to hyperpolarized holding potentials: -70 mV versus -100 and/or -150 mV; for nHR: Hill coefficient, resting state binding; for blocking potency compared with lidocaine (words): block of resting channels. As for the experimental part: Stably transfected HEK 293 cell lines expressing the α-subunit of NaV1.2 neuronal sodium channels from a rat were used. The expression vector pRc/CMV (Invitrogen, San Diego, USA) was used for mammalian transfection. Transfection was performed using calcium phosphate precipitation. Permanent expression was achieved by selection for resistance to the aminoglycoside antibiotic geneticin G418 (Life Technology, Eggenstein, Germany).
T1 sequence (P04775 whole entry): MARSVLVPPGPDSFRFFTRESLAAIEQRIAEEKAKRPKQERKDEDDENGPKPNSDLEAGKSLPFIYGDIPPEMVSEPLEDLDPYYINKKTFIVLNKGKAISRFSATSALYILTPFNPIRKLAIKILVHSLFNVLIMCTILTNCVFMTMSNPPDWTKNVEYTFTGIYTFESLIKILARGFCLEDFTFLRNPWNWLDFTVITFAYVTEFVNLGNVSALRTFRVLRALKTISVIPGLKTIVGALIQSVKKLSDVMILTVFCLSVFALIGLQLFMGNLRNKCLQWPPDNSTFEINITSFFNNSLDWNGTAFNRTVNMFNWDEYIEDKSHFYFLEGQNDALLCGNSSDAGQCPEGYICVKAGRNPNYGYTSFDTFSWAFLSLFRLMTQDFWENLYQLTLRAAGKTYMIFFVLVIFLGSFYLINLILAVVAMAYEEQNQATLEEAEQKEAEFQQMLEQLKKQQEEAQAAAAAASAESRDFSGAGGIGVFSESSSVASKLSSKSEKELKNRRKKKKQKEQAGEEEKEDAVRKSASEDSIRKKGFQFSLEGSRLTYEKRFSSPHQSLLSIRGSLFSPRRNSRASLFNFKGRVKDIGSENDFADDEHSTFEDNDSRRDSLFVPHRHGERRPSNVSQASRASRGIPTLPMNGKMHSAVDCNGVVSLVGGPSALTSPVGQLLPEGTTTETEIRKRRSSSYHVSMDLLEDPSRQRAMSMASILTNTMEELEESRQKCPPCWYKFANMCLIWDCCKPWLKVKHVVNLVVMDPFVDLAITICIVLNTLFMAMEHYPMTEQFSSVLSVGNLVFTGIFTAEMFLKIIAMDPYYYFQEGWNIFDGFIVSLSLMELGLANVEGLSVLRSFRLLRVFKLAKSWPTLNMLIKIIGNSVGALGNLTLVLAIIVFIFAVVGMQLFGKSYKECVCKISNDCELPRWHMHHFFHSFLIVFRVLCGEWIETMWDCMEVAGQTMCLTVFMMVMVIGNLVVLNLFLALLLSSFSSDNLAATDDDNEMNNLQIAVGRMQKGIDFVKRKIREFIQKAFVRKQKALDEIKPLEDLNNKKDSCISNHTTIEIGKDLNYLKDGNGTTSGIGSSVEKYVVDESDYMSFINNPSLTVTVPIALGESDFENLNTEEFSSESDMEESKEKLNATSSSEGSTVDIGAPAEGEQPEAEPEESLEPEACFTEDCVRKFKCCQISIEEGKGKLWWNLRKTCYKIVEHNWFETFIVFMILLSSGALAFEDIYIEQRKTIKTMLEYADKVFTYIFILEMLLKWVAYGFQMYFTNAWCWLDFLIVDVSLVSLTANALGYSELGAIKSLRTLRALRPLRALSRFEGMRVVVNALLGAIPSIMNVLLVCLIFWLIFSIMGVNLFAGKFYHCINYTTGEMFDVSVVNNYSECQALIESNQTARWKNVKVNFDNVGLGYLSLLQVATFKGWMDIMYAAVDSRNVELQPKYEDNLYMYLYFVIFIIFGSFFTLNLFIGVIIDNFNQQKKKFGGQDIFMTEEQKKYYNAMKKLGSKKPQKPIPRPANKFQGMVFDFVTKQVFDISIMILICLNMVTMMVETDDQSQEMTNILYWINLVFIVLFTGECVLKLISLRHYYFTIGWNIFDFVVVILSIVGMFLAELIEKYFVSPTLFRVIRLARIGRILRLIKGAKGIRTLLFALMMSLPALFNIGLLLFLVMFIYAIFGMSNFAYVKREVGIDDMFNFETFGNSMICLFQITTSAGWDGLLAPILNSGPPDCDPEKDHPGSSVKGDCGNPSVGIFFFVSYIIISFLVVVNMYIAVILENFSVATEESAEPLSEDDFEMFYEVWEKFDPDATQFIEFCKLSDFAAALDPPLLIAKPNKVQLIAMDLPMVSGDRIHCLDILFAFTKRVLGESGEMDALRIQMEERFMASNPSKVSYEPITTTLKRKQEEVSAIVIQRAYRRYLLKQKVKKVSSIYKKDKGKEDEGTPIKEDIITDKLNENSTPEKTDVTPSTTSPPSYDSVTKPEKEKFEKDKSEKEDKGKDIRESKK
The stock solution was then dissolved directly in bath solution. The bath solution contained [mM] NaCl 140, MgCl2 1.0, KCl 4.0, CaCl2 2.0, Hepes 5.0, dextrose 5.0. Patch electrodes contained [mM] CsCl2 130, MgCl2 2.0, EGTA 5.0, Hepes 10. All solutions were adjusted to 290 mosm 1^-1 by the addition of mannitol and to pH 7.4 by the addition ofCsOH.
Standard whole-cell voltage-clamp experiments were performed at 20°C. Each experiment consisted of test recordings with the drug present at only one concentration, and of drug-free control recordings before and after the test. Each cell was exposed to one test concentration only. At least three or five independent experiments were performed at each concentration depending on the active being tested.
For data acquisition and further analysis, a EPC9 digitally-controlled amplifier was used in combination with Pulse and Pulse Fit software (HEKA Electronics, Lambrecht, Germany). The EPC9 provides automatic subtraction of capacitive and leakage currents by means of a prepulse protocol. The data were filtered at 10 kHz and digitized at 20 µs per point. The input resistance of the patch pipettes was 2.0-3.5 MΩ and the capacitances of the cells were 9-15 pF; the residual series resistance (after 50% compensation) was 1.2-2.5 MΩ. Experiments with a rise in series resistance were rejected. To minimize time-dependent shifts in the voltage-dependence of steady-state inactivation, all test experiments were performed within 5 min of patch rupture.
Drug effects on the peak current amplitude were assessed at a hyperpolarized membrane potentials (-100 mV and -150mV), at a holding potential close to the normal resting potential in physiological conditions (-70 mV), and, additionally, at -100 mV in the presence of a fraction of slow inactivated channels. Slow inactivation was induced by long (2.5 s) prepulses to -90, -70, -50, -30 and -10 mV, followed by a short hyperpolarization to allow recovery from fast-inactivation. In our protocol the recovery interval was prolonged to 100 ms (instead of 10 ms originally described) in order to allow sufficient time not only for drug-free, but also for all drug-bound states to recover from fast inactivation. The residual sodium current (Inorm) in the presence of a drug (with respect to the peak current elicited with the same protocol during wash-out) elicited with a single test pulse to 0 mV was plotted against the applied concentration of the drug [C]. Concentration-response-curves were fitted using a Hill equation yielding the concentrations for half-maximum channel blockade (ICR50), and the respective Hill coefficients nH. (I)/(Imax) = (IC50^nH)/(IC50^nH + C^nH) [formula] (I)/(Imax) = a(ICR50^nH)/(ICR50^nH + C^nH) + (1-a)(ICI50^nH)/(ICI50^nH + C^nH) [formula]
In the presence of Hexetidine, a 2-state Hill equation, Eq. 2, was applied, yielding the concentrations for half-maximum channel blockade in the inactivated state (ICI50), the respective Hill coefficient nH, and the respective amplitudes a and (1-a). The values previously obtained for ICR50 and nH were entered as constant factors.

Data set [2] deals with T1, α-subunit of NaV1.2 neuronal sodium channels. As to the kind of experiment: Whole-cell voltage-clamp, double-pulse protocol: steady-state availability (fast inactivation), voltage shift and model-dependent affinity for inactivated channels. The class given is cell-based. Also on record: expressed in transfected cells; host or cells: HEK 293, stably transfected with expression vector pRc/CMV and selected with G418. As to conditions: for nHI: Hill coefficient for inactivated state binding, model fit of Eq.4; for maximum shift in voltage-dependence of sodium channel availability: negative shift in midpoints of steady-state availability plots. As for the experimental part: Transfection was performed using calcium phosphate precipitation. […] Successful channel expression was verified electrophysiologically.
The bath solution contained [mM] […] Patch electrodes contained [mM]
Each cell was exposed to one test concentration only.
Experiments with a rise in series resistance were rejected.
Drug binding to inactivated channels is hardly accessible to a direct experimental approach, because inactivated channel states and all drug-bound channel states are unavailable on depolarization. A model-dependent method is generally applied to determine the affinity to fast-inactivated channel states. The voltage-dependence of the block and the affinity for fast-inactivated channel states was further assessed by applying a double-pulse protocol. Currents elicited by test pulses (Itest), starting from varying prepulse potentials (from -150 mV to -5 mV), normalized to the current elicited at the most hyperpolarized prepotential (-150 mV), represent the relative fraction of channels that have not been inactivated during the 100 ms inactivating prepulse. Boltzmann fits to the resulting current-voltage plots yield the membrane potential at half-maximum channel availability (V0.5) and the slope factor k, reflecting the 'voltage sensitivity' of inactivation gating (see Eq. 3). (I)/(Imax) = (1)/(1 + e^(((Vtest -V0.5)/(k)))) [formula]
In control conditions, the parameters of the Boltzmann fits reflect the voltage-dependence of the distribution between resting and fast-inactivated channels (the availability curve). In the presence of the drug, the steady-state availability curve reflects drug association with rested and fast-inactivated channels, respectively. […] The underlying assumption is that the higher amount of channel blockade achieved with consecutive membrane depolarization is determined by the distribution of channels between resting and fast-inactivated states along the voltage axis (i.e. the channel availability curve), and by the different binding affinities of the blocking drug for the two channel states. The voltage shift ΔV0.5 in the presence of a drug would depend upon the drug concentration [C] according to Eq. 4. A fit of the model to ΔV0.5 plotted against concentration yields estimates for the concentration for half-maximum effect on fast-inactivated channels ICI50 and the Hill-type coefficient for drug binding to inactivated channels n: ΔV0.5 = k.ln[(1+([C])/(ICR50))/(1+(([C])^n)/(ICR50^n)) [formula]
K and ICR50 are entered as constant factors. K is the slope factor of the availability curve in the controls and ICR50 is the concentration for half-maximum effect on resting channels, obtained at -100 mV holding potential.

The mark [3] stands for this setting: -100 mV, after application of higher concentrations (> EC50).
Where [4] appears, read: ECR50, half maximum blocking concentration, resting channels, fit to concentration-response plots at -150 mV holding potential, HEK 293, 20°C.
Setting [5] is: estimate for inactivated channels, model fit of Eq.4 to concentration-dependence of the voltage shift in the availability curve, read-out: ECI50.

Turning to `CCCCCc1ccc(C)cc1O` [AMC, amylmetacresol], the IC50 came to 55 µM in data set [1] and 22 µM in data set [2]. The “currents during wash-out, % of control current” value in data set [1] (-70 mV holding potential) was determined as 64 ± 9%; in data set [1] (-100 mV holding potential) it was 91 ± 3%; in data set [1] (setting [3]), 94 ± 6%; in data set [1] (-150 mV holding potential) it was 90 ± 3%. Further, the “potency for block of resting sodium channels relative to lidocaine” value in data set [1] (depolarization from the resting state) was “around 10 fold”. In addition, the “ECI50 lower than the ECR50” value in data set [2] (inactivated versus resting channels) is “around 3 fold”.
As to `OCc1ccc(Cl)cc1Cl` [DCBA, 2,4-dichlorobenzyl alcohol], the “currents during wash-out, % of control current” value turned out to be 63 ± 9% in data set [1] (-70 mV holding potential), 89 ± 5% in data set [1] (-100 mV holding potential) and 88 ± 3% in data set [1] (-150 mV holding potential). In addition, the “sensitivity at -70 mV holding potential compared to hyperpolarized holding potentials” value in data set [1] is reported as “slightly increased”. Further, the “currents during wash-out, % of control current amplitude” value in data set [1] (-100 mV holding potential, after 300 and 500 µM DCBA) was determined as 71 ± 3%. Besides, the IC50 is 657 µM in data set [1] (setting [4]) and 5.2 µM in data set [2] (setting [5]). Moreover, the nHR in data set [1] (-150 mV holding potential) is 3.5. The “blocking potency compared with lidocaine (words)” value in data set [1] (listed as Dichlorobenzyl alcohol) is reported as “about as potent as lidocaine”; in data set [1] (listed as dichlorobenzyl alcohol), “comparable”. Further, in data set [2], the “estimated affinity to inactivated channels compared to resting channels” value is “several fold higher”. In addition, the nHI in data set [2] is on record as 0.4. The “maximum shift in voltage-dependence of sodium channel availability” value in data set [2] is -15 mV.
On to `CCCCCCc1ccc(O)cc1O` [HR, hexylresorcinol], for which the “currents during wash-out, % of control current” value is 94 ± 4% in data set [1] (-100 mV holding potential), 90 ± 10% in data set [1] (setting [3]) and 95 ± 3% in data set [1] (-150 mV holding potential). For the same compound, the figures for the IC50 in data set [1] (setting [4]) and in data set [2] (setting [5]) were 21 µM and 0.3 µM, respectively.
Consider `CCCCC(CC)CN1CN(CC(CC)CCCC)CC(C)(N)C1` (stereo not drawn) [HT, hexetidine], for which, in data set [1], the “concentrations toxic for the seal in whole cell experiments” value is on record as “above 30 µM” and the “sensitivity at -70 mV holding potential compared to hyperpolarized holding potentials” value is recorded as “increased”. Besides, in data set [1] (100 µM, 3 experiments, not solely attributable to specific channel block), the “block of sodium inward currents” value is on record as “complete block”. The “currents during wash-out, % of control current” value in data set [1] (-70 mV holding potential) is 47 ± 11%. Also, in data set [1] (-150 mV holding potential), the “currents during wash-out, % of control current” value was 80 ± 8% and the nHR was determined as 1.08. The IC50 in data set [1] (setting [4]) was found to be 35 µM. In data set [1] (estimated EC50, high-affinity binding site, biphasic concentration-response curve, two distinct binding sites), the IC50 is 0.001 µM. Further, the inhibition at 0.1 µM in data set [1] (read-out: block, % of the control current amplitude) is 41 ± 13%. In data set [2], the “estimated affinity to inactivated channels compared to resting channels” value was “several fold higher”, the nHI was determined as 0.5 and the “maximum shift in voltage-dependence of sodium channel availability” value was -21 mV. Moreover, the IC50 in data set [2] (setting [5]) was 0.05 µM.

The values are drawn from patent publication EP2570123A1, “Use of 2,4-dichlorobenzyl alcohol having an anaesthetic effect” (Reckitt Benckiser Healthcare (UK) Limited, priority 2007, dated 2009).
